21 compounds from patent publication US20090227601A1, “Bradykinin 1 Receptor Antagonists” (Amgen Inc., priority 2005, published 2009) can be followed below.

Several values for one entry are separate records, joined by “and”; a condition that tells them apart may be missing. Equal values may be shown once.

For the experiment, the target named is T1, hB2 receptor (Homo sapiens, UniProt P30411).
T1 construct: host or cells: CHO-K1
T1 sequence (P30411 1-391): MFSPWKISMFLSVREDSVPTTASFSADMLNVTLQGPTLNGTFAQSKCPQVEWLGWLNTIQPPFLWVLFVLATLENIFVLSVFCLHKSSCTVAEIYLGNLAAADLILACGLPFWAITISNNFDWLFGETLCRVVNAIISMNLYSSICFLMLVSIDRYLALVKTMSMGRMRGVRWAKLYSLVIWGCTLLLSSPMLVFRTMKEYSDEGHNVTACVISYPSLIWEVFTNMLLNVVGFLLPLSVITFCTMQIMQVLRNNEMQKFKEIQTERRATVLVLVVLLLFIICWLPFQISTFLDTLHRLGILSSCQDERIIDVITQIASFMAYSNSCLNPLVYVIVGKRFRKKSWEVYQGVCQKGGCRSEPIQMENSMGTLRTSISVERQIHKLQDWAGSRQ
The experiment is described as follows: In vitro Assay of hB2 Receptor Function using Calcium Flux. The experiment is classed as cell-based. Conditions: recombinant CHO cells, antagonist IC50 against agonist at EC80. Here is the method:
In vitro Assay of hB2 Receptor Function using Calcium Flux The intracellular calcium flux induced by hB2 receptor activation was analyzed using an hB2 recombinant cell line (CHO-K1) purchased from PerkinElmer (Catalog Number: RBHB2C000EA) on a fluorometric imaging plate reader (FLIPR). […] Culture medium was changed every other day. 24 h prior to the FLIPR assay, the hB2/CHO cells were washed once with PBS (Invitrogen) and 10 mL of Versene (1:5000, Invitrogen, Cat# 15040-066) was added to each flask. After 5 min incubation at 37° C., Versene was removed and cells were detached from the flask and resuspended in culture medium. Cells were counted and 25,000 cells/well were plated in 96-well black-sided clear bottom assay plates (Costar #3904). Cells were incubated in a 37° C. CO2 incubator overnight. The media was aspirated from the cells and replaced with 65 μL of dye-loading buffer. The loading buffer was prepared by diluting a stock solution of 0.5 mM Fluo-4 AM (Molecular Probes, dissolved in DMSO containing 10% [w/v] pluronic acid) to a concentration of 1 μM in Clear Dulbecco's Modified Eagle Medium (DMEM) containing 0.1% BSA, 20 mM HEPES, and 2.5 mM probenecid. The cells were dye-loaded for 1 h at RT. The excess dye was removed by washing the cells 2× with assay buffer. The assay buffer consists of Hank's Balanced Salt Solution (HBSS) containing 20 mM HEPES, 0.1% BSA, and 2.5 mM probenecid. After the wash cycles, a volume of 100 μL was left in each well, and the plate was ready to be assayed in the FLIPR System. […] The cell plate and the compound plates were loaded onto the FLIPR and during the assay, fluorescence readings are taken simultaneously from all 96 wells of the cell plate. Ten 1-second readings were taken to establish a stable baseline for each well, then 25 μL from the B1 antagonist plate was rapidly (50 μL/sec.) added. The fluorescence signal was measured in 1-second (1 min) followed by 6-second (2 min) intervals for a total of 3 min to determine if there is any agonist activity with the compounds.
Regarding `Cc1ccc(C2CCN(C(=O)C[C@@H]3C(=O)NC=CN3S(=O)(=O)c3ccc(C)cc3)CC2)cc1` [T-3-48, (3R)-3-(2-(4-(4-methylphenyl)-1-piperidinyl)-2-oxoethyl)-4-((4-methylphenyl)-sulfonyl)-3,4-dihydro-2(1H)-pyrazinone], the half-maximal inhibitory concentration (IC50) is 1600 nM.

Take “N-((1R)-2,2-dimethyl-4-oxocyclohexyl)-2-((2R)-1-((4-methylphenyl)sulfonyl)-3-oxo-1,2,3,4-tetrahydro-2-pyrazinyl)acetamide; and N-((1S)-2,2-dimethyl-4-oxocyclohexyl)-2-((2R)-1-((4-methylphenyl)sulfonyl)-3-oxo-1,2,3,4-tetrahydro-2-pyrazinyl)acetamide [T-1-37]”: the IC50 came to 19 nM.

On to `Cc1cc(S(=O)(=O)N2C=CNC(=O)[C@H]2CC(=O)N2CCC3(CCN(C4CC4)C3)C2)c(C)cc1Cl` (stereo partly drawn) [T-3-38, (3R)-4-((4-chloro-2,5-dimethylphenyl)sulfonyl)-3-(2-(7-cyclopropyl-2,7-diazaspiro[4.4]non-2-yl)-2-oxoethyl)-3,4-dihydro-2(1H)-pyrazinone], for which the IC50 was 5.1 nM.

Consider `Cc1ccc(S(=O)(=O)N2C=CNC(=O)[C@H]2CC(=O)NC2CCC(N3CCCC(F)C3)CC2(C)C)cc1` (stereo partly drawn) [T-1-41, N-(4-(3-fluoro-1-piperidinyl)-2,2-dimethylcyclohexyl)-2-((2R)-1-((4-methyl-phenyl)sulfonyl)-3-oxo-1,2,3,4-tetrahydro-2-pyrazinyl)acetamide], for which the IC50 amounted to 2 nM.

Regarding “2-((2R)-1-((4-methylphenyl)sulfonyl)-3-oxo-1,2,3,4-tetrahydro-2-pyrazinyl)-N-((1R,2R,4R)-1,7,7-trimethylbicyclo[2.2.1]hept-2-yl)acetamide; and 2-((2R)-1-((4-methylphenyl)sulfonyl)-3-oxo-1,2,3,4-tetrahydro-2-pyrazinyl)-N-((1R,2S,4R)-1,7,7-trimethylbicyclo[2.2.1]hept-2-yl)acetamide [T-1-2]”, the IC50 turned out to be 92 nM.

Consider “N-((3R)-1-(1-methylethyl)-3-piperidinyl)-2-((2R)-1-((4-methylphenyl)sulfonyl)-3-oxo-1,2,3,4-tetrahydro-2-pyrazinyl)acetamide; and N-((3S)-1-(1-methylethyl)-3-piperidinyl)-2-((2R)-1-((4-methylphenyl)sulfonyl)-3-oxo-1,2,3,4-tetrahydro-2-pyrazinyl)acetamide [T-1-11]”, for which the IC50 was 530 nM.

For `Cc1ccc(S(=O)(=O)N2C=CNC(=O)[C@H]2CC(=O)NC2CCC(N3CCC(F)CC3)CC2(C)C)cc1` (mixture of isomers) [T-1-42], the IC50 was 1980 nM.

Regarding “N-((4S)-1-cyclopropyl-3,3-dimethyl-4-piperidinyl)-2-((2R)-1-((4-methylphenyl)-sulfonyl)-3-oxo-1,2,3,4-tetrahydro-2-pyrazinyl)acetamide; and N-((4R)-1-cyclopropyl-3,3-dimethyl-4-piperidinyl)-2-((2R)-1-((4-methylphenyl)-sulfonyl)-3-oxo-1,2,3,4-tetrahydro-2-pyrazinyl)acetamide [T-1-45]”, the IC50 worked out at 1 nM.

As to `Cc1ccc(S(=O)(=O)N2C=CNC(=O)[C@H]2CC(=O)N[C@@H]2CCCC[C@H]2C(C)(C)O)cc1` (mixture of isomers) [T-1-65, N-((1RS,2RS)-2-(1-hydroxy-1-methylethyl)cyclohexyl)-2-((2R)-1-((4-methylphenyl)sulfonyl)-3-oxo-1,2,3,4-tetrahydro-2-pyrazinyl)acetamide], the half-maximal inhibitory concentration (IC50) is 2700 nM.

Consider `Cc1cc(S(=O)(=O)N2C=CNC(=O)[C@H]2CC(=O)N2CCC3(CCNC3)C2)c(C)cc1Cl` (stereo partly drawn) [T-3-26, (3R)-4-((4-chloro-2,5-dimethylphenyl)sulfonyl)-3-(2-(2,7-diazaspiro[4.4]non-2-yl)-2-oxoethyl)-3,4-dihydro-2(1H)-pyrazinone], for which the concentration for half-maximal inhibition (IC50) was 15 nM.

As for `Cc1cc(S(=O)(=O)N2C=CNC(=O)[C@H]2CC(=O)N2CCC(N3CCCC3)C(C)(C)C2)c(C)cc1Cl` (mixture of isomers) [T-3-30, (3R)-4-((4-chloro-2,5-dimethylphenyl)sulfonyl)-3-(2-((4R/S)-3,3-dimethyl-4-(1-pyrrolidinyl)-1-piperidinyl)-2-oxoethyl)-3,4-dihydro-2(1H)-pyrazinone], the IC50 was 61 nM.

As to `COCCN1CC[C@@H](NC(=O)C[C@@H]2C(=O)NC=CN2S(=O)(=O)c2ccc(C)cc2)C(C)(C)C1` [T-1-120, N-((4R)-3,3-dimethyl-1-(2-(methyloxy)ethyl)-4-piperidinyl)-2-((2R)-1-((4-methylphenyl)sulfonyl)-3-oxo-1,2,3,4-tetrahydro-2-pyrazinyl)acetamide], the IC50 amounted to 1 nM.

On to `Cc1cc(S(=O)(=O)N2C=CNC(=O)[C@H]2CC(=O)N2CCC(CN3CCCC3)CC2)c(C)cc1Cl` [T-3-18, (3R)-4-((4-chloro-2,5-dimethylphenyl)sulfonyl)-3-(2-oxo-2-(4-(1-pyrrolidinylmethyl)-1-piperidinyl)ethyl)-3,4-dihydro-2(1H)-pyrazinone], for which the IC50 turned out to be 160 nM.

In the case of `Cc1ccc(S(=O)(=O)N2C=CNC(=O)[C@H]2CC(=O)NC2CCCCC2C2CCCCC2)cc1` (stereo partly drawn) [T-1-40, N-1,1′-bi(cyclohexyl)-2-yl-2-((2R)-1-((4-methylphenyl)sulfonyl)-3-oxo-1,2,3,4-tetrahydro-2-pyrazinyl)acetamide], the IC50 came to 200 nM.

Consider `Cc1ccc(S(=O)(=O)N2C=CNC(=O)[C@H]2CC(=O)NC2CCC(NC3CC3)CC2(C)C)cc1` (mixture of isomers) [T-1-43], for which the IC50 was found to be 14 nM.

Consider `Cc1cc(S(=O)(=O)N2C=CNC(=O)[C@H]2CC(=O)N2CCC(N3CCCCC3)CC2)c(C)cc1Cl` [T-3-8, (3R)-3-(2-(1,4′-bipiperidin-1′-yl)-2-oxoethyl)-4-((4-chloro-2,5-dimethylphenyl)-sulfonyl)-3,4-dihydro-2(1H)-pyrazinone], for which the half-inhibitory concentration (IC50) came out at 270 nM.

Turning to `Cc1ccc(S(=O)(=O)N2C=CNC(=O)[C@H]2CC(=O)NC2CC(=O)OC(C)(C)C2)cc1` (mixture of isomers) [T-1-67, N-((4RS)-2,2-dimethyl-6-oxotetrahydro-2H-pyran-4-yl)-2-((2R)-1-((4-methylphenyl)sulfonyl)-3-oxo-1,2,3,4-tetrahydro-2-pyrazinyl)acetamide], the IC50 came out at 2200 nM.

Consider `Cc1ccc(S(=O)(=O)N2C=CNC(=O)[C@H]2CC(=O)N(C)C2CCN(C)CC2)cc1` [T-2-1, 2-((2R)-1-((4-methylphenyl)sulfonyl)-3-oxo-1,2,3,4-tetrahydro-2-pyrazinyl)-N-methyl-N-(1-methyl-4-piperidinyl)acetamide], for which the IC50 came out at 3 nM.

Regarding `Cc1ccc(S(=O)(=O)N2C=CNC(=O)[C@H]2CC(=O)NC2CC3CCC(C2)N3C)cc1` (stereo partly drawn) [T-1-34, N-((3-endo)-8-methyl-8-azabicyclo[3.2.1]oct-3-yl)-2-((2R)-1-((4-methylphenyl)-sulfonyl)-3-oxo-1,2,3,4-tetrahydro-2-pyrazinyl)acetamide; and N-((3-exo)-8-methyl-8-azabicyclo[3.2.1]oct-3-yl)-2-((2R)-1-((4-methylphenyl)-sulfonyl)-3-oxo-1,2,3,4-tetrahydro-2-pyrazinyl)acetamide], the IC50 was 140 nM.

For the compound “2-((2R)-1-((4-chloro-2,5-dimethylphenyl)sulfonyl)-3-oxo-1,2,3,4-tetrahydro-2-pyrazinyl)-N-((4S)-3,3-dimethyl-4-piperidinyl)acetamide; and 2-((2R)-1-((4-chloro-2,5-dimethylphenyl)sulfonyl)-3-oxo-1,2,3,4-tetrahydro-2-pyrazinyl)-N-((4R)-3,3-dimethyl-4-piperidinyl)acetamide [T-1-48]”, the IC50 is 400 nM.

On to `Cc1ccc(S(=O)(=O)N2C=CNC(=O)[C@H]2CC(=O)NC2CCN(C(=O)OC(C)(C)C)CC2(C)C)cc1` (mixture of isomers) [T-1-15, 1,1-dimethylethyl (4R)-3,3-dimethyl-4-((((2R)-1-((4-methylphenyl)sulfonyl)-3-oxo-1,2,3,4-tetrahydro-2-pyrazinyl)acetyl)amino)-1-piperidinecarboxylate; and 1,1-dimethylethyl (4S)-3,3-dimethyl-4-((((2R)-1-((4-methylphenyl)sulfonyl)-3-oxo-1,2,3,4-tetrahydro-2-pyrazinyl)acetyl)amino)-1-piperidinecarboxylate], for which the IC50 is 150 nM and 430 nM.
